Test results: patent US12606541B2, “PPARg modulators and methods of use” (Eisai R&D Management Co., Ltd., priority 2020, dated 2026)

What was measured:
UM-UC-9 engineered cells = assay: Cell proliferation / short-term viability assay, CellTiter-Glo 144 h; format: cell-based, human; conditions: Homo sapiens, UM-UC-9, 144 h, read-out: CTGlo 144 h UMUC9.5, G150
Outline: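 Viability read by CellTiter-Glo 2.0 luminescence at day 7 versus DMSO-vehicle wells and a T0 plate measured on day 0. Cells: UM-UC-9 engineered assay-ready stocks, 500 cells/well in high-glucose DMEM with 10% FBS, 37° C, 5% CO2.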

His6-TEV-PPARγ-(234-505) = biological target: T1, His6-TEV-PPARγ-(234-505) (Homo sapiens, UniProt P37231); assay: TR-FRET Assay to Measure Co-R Peptide Recruitment to PPARγ; format: biochemical; conditions: Co-R peptide (SMRT-ID2) recruitment; top final concentration 20 μM; read-out: TR-FRET i-Ag; AC50
T1 construct: The His6-TEV-PPARγ-(234-505) protein for assay was expressed and purified; TEV cleavage site (N); made in house
T1 sequence (P37231 234-505): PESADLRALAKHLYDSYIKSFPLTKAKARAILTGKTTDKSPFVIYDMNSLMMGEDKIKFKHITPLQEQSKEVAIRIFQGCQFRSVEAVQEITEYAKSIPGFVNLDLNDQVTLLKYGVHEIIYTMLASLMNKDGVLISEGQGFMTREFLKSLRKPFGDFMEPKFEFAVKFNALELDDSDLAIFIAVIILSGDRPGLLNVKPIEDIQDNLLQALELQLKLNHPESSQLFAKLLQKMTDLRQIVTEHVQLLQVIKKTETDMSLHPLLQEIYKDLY
Outline: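 Corepressor recruitment is measured by adding terbium-labeled anti-His antibody and FITC SMRT-ID2 peptide, at 5 and 200 nM final, after a 20-minute room-temperature protein–compound incubation. After one further hour, signal is converted to percent response between DMSO and 500 nM T0070907 wells.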

Row | AC50 (His6-TEV-PPARγ-(234-505)) [nM] | SMILES | IC50 (UM-UC-9 engineered cells) [nM]
1 | 3.7 | COc1cc(-c2cc(C(=O)N3CC[C@H](C(=O)NCc4ncc(F)cc4Cl)CC34CC4)n[nH]2)c(F)cn1 [Example 362, (S)—N-((3-chloro-5-fluoropyridin-2-yl)methyl)-4-(5-(5-fluoro-2-methoxypyridin-4-yl)-1H-pyrazole-3-carbonyl)-4-azaspiro[2.5]octane-7-carboxamide] | 8.7
2 | 6 | COc1cc(-c2cc(C(=O)N3CC[C@H](C(=O)NCc4ncc(F)cc4C(F)(F)F)CC34CC4)n[nH]2)c(F)cn1 [Example 363, (S)-4-(5-(5-fluoro-2-methoxypyridin-4-yl)-1H-pyrazole-3-carbonyl)-N-((5-fluoro-3-(trifluoromethyl)pyridin-2-yl)methyl)-4-azaspiro[2.5]octane-7-carboxamide] | 3.5
3 | 13.1 | COc1cc(-c2cc(C(=O)N3CC[C@H](C(=O)NCc4ncc(C(C)(C)O)cc4Cl)CC34CC4)n[nH]2)c(F)cn1 [Example 364, (S)—N-((3-chloro-5-(2-hydroxypropan-2-yl)pyridin-2-yl)methyl)-4-(5-(5-fluoro-2-methoxypyridin-4-yl)-1H-pyrazole-3-carbonyl)-4-azaspiro[2.5]octane-7-carboxamide] | 56.2
4 | 10 | COc1cc(-c2cc(C(=O)N3CC[C@H](C(=O)NCC45CC(C(F)(F)F)(CO4)C5)CC34CC4)n[nH]2)c(F)cn1 [Example 365, (S)-4-(5-(5-fluoro-2-methoxypyridin-4-yl)-1H-pyrazole-3-carbonyl)-N-((4-(trifluoromethyl)-2-oxabicyclo[2.1.1]hexan-1-yl)methyl)-4-azaspiro[2.5]octane-7-carboxamide] | 21.9
5 | 36.4 | COc1cc(-c2cc(C(=O)N3CC[C@H](C(=O)NCc4cn5c(n4)COCC5)CC34CC4)n[nH]2)c(F)cn1 [Example 371, (S)—N-((5,6-dihydro-8H-imidazo[2,1-c][1,4]oxazin-2-yl)methyl)-4-(5-(5-fluoro-2-methoxypyridin-4-yl)-1H-pyrazole-3-carbonyl)-4-azaspiro[2.5]octane-7-carboxamide] | 338
6 | 12.3 | COc1cc(-c2cc(C(=O)N3CC[C@H](C(=O)Nc4cnn5ccc(C)nc45)CC34CC4)n[nH]2)c(F)cn1 [Example 381, (S)-4-(5-(5-fluoro-2-methoxypyridin-4-yl)-1H-pyrazole-3-carbonyl)-N-(5-methylpyrazolo[1,5-a]pyrimidin-3-yl)-4-azaspiro[2.5]octane-7-carboxamide] | 5.8
7 | 181 | COc1cc(-c2cc(C(=O)N3CC[C@H](C(=O)NCc4nnccc4C)CC34CC4)n[nH]2)c(F)cn1 [Example 386, (S)-4-(5-(5-fluoro-2-methoxypyridin-4-yl)-1H-pyrazole-3-carbonyl)-N-((4-methylpyridazin-3-yl)methyl)-4-azaspiro[2.5]octane-7-carboxamide] | 231
8 | 14.4 | COc1cc(-c2cc(C(=O)N3CC[C@H](C(=O)NCc4nc(C)ncc4Cl)CC34CC4)n[nH]2)c(F)cn1 [Example 387, (S)—N-((5-chloro-2-methylpyrimidin-4-yl)methyl)-4-(5-(5-fluoro-2-methoxypyridin-4-yl)-1H-pyrazole-3-carbonyl)-4-azaspiro[2,5]octane-7-carboxamide] | 22.5
9 | 11.4 | COc1cc(-c2cc(C(=O)N3CC[C@H](C(=O)NCc4nccnc4Cl)CC34CC4)n[nH]2)c(F)cn1 [Example 388, (S)—N-((3-chloropyrazin-2-yl)methyl)-4-(5-(5-fluoro-2-methoxypyridin-4-yl)-1H-pyrazole-3-carbonyl)-4-azaspiro[2.5]octane-7-carboxamide] | 17.6
10 | 10.3 | COc1cc(-c2cc(C(=O)N3CC[C@H](C(=O)NCc4ncc(F)cc4OC)CC34CC4)n[nH]2)c(F)cn1 [Example 389, (S)-4-(5-(5-fluoro-2-methoxypyridin-4-yl)-1H-pyrazole-3-carbonyl)-N-((5-fluoro-3-methoxypyridin-2-yl)methyl)-4-azaspiro[2.5]octane-7-carboxamide] | 13
11 | 19.5 | COc1cc(-c2cc(C(=O)N3CC[C@H](C(=O)NCc4ncc(C#N)cc4Cl)CC34CC4)n[nH]2)c(F)cn1 [Example 391, (S)—N-((3-chloro-5-cyanopyridin-2-yl)methyl)-4-(5-(5-fluoro-2-methoxypyridin-4-yl)-1H-pyrazole-3-carbonyl)-4-azaspiro[2.5]octane-7-carboxamide] | 81.3
12 | 9.1 | COc1cc(-c2cc(C(=O)N3CC[C@H](C(=O)NCc4ncc(C5COC5)cc4Cl)CC34CC4)n[nH]2)c(F)cn1 [Example 392, (S)—N-((3-chloro-5-(oxetan-3-yl)pyridin-2-yl)methyl)-4-(5-(5-fluoro-2-methoxypyridin-4-yl)-1H-pyrazole-3-carbonyl)-4-azaspiro[2.5]octane-7-carboxamide] | 45.2
13 | 9.2 | COc1cc(-c2cc(C(=O)N3CC[C@H](C(=O)NCc4ncc(N5CC(C#N)C5)cc4Cl)CC34CC4)n[nH]2)c(F)cn1 [Example 393, (S)—N-((3-chloro-5-(3-cyanoazetidin-1-yl)pyridin-2-yl)methyl)-4-(5-(5-fluoro-2-methoxypyridin-4-yl)-1H-pyrazole-3-carbonyl)-4-azaspiro[2.5]octane-7-carboxamide] | 106
14 | 8.7 | COc1cc(-c2cc(C(=O)N3CC[C@H](C(=O)NCc4nc(C)oc4C(F)(F)F)CC34CC4)n[nH]2)c(F)cn1 [Example 394, (S)-4-(5-(5-fluoro-2-methoxypyridin-4-yl)-1H-pyrazole-3-carbonyl)-N-((2-methyl-5-(trifluoromethyl)oxazol-4-yl)methyl)-4-azaspiro[2.5]octane-7-carboxamide] | 24.5
15 | 23.4 | COc1cc(-c2cc(C(=O)N3CC[C@H](C(=O)NCc4nccnc4C)CC34CC4)n[nH]2)c(F)cn1 [Example 397, (S)-4-(5-(5-fluoro-2-methoxypyridin-4-yl)-1H-pyrazole-3-carbonyl)-N-((3-methylpyrazin-2-yl)methyl)-4-azaspiro[2.5]octane-7-carboxamide] | 59.9
16 | 12.6 | COc1cc(-c2cc(C(=O)N3CC[C@H](C(=O)NCc4ncc(F)cc4F)CC34CC4)n[nH]2)c(F)cn1 [Example 400, (S)—N-((3,5-difluoropyridin-2-yl)methyl)-4-(5-(5-fluoro-2-methoxypyridin-4-yl)-1H-pyrazole-3-carbonyl)-4-azaspiro[2.5]octane-7-carboxamide] | 24.3
17 | 10.8 | COc1cnc(CNC(=O)[C@H]2CCN(C(=O)c3cc(-c4cc(OC)ncc4F)[nH]n3)C3(CC3)C2)c(Cl)c1 [Example 402, (S)—N((3-chloro-5-methoxypyridin-2-yl)methyl)-4-(5-(5-fluoro-2-methoxypyridin-4-yl)-1H-pyrazole-3-carbonyl)-4-azaspiro[2.5]octane-7-carboxamide] | 2.9

Row | SMILES | AC50 (His6-TEV-PPARγ-(234-505)) [nM] | IC50 (UM-UC-9 engineered cells) [nM]
18 | COc1cc(-c2cc(C(=O)N3[C@@H]4CC[C@H]3C[C@H](C(=O)NCc3ncc(F)cc3Cl)C4)n[nH]2)c(F)cn1 [Example 384, (1R,3s,5S)—N-((3-chloro-5-fluoropyridin-2-yl)methyl)-8-(5-(5-fluoro-2-methoxypyridin-4-yl)-1H-pyrazole-3-carbonyl)-8-azabicyclo[3.2.1]octane-3-carboxamide] | 15.2 | 82.1
